Here are results for ten compounds from PMC11124136, “New Thiazolidine-4-One Derivatives as SARS-CoV-2 Main Protease Inhibitors” (Pharmaceuticals, 2024).

Where two headings read alike, the source gives them in different places. Some results are limits rather than exact numbers.

For one data set, the target named is SARS-CoV-2 Mpro (Severe acute respiratory syndrome coronavirus 2, UniProt P0DTD1). Description: biochemical. Format: biochemical. To be noted: for IC50: FRET assay, concentration reducing Mpro activity by 50%, mean ± SD of three independent experiments, highest concentration tested 30 μM; for remaining activity at 30 µM: SARS-CoV-2 Mpro, at 30 μM (highest concentration tested), read-out: Percentage of control activity measured in the presence of the indicated drug concentration.

For data set [1], the system named is SARS-CoV-2 BetaCoV/Belgium/GHB-03021/2020 strain. In words: microbe, parasite or virus in culture. Format: cell-based. The note with it: read-out: EC50 + CP_100356.
The nature of a further data set: in vitro. Format: cell-based. The note with it: African green monkey. As to the method: (§1) Vero-E6 GFP cells were seeded at 10^4 cells/well in 96-well black plates (PerkinElmer). The following day, cells were incubated, with or without compounds, with 2 μM P-gp inhibitor CP-100356 [47]. The media was removed 24 h after treatment, and the total well GFP fluorescence was measured using Victor NIVO 5 with 485/535 nm excitation wavelength. The cytotoxic effect of compounds was calculated as a percentage of cell viability with respect to untreated control. Data were analyzed using Prism 9. Version 9.1.2.

The subject of another data set is Vero-E6 GFP cells. Description: in vitro. Format: cell-based. To be noted: concentration reducing Vero E6-GFP viability by 50%; 2 μM CP-100356, 24 h; read-out: CC50 +CP_100356. As to the method: as §1
Setting [2] is: Severe acute respiratory syndrome coronavirus 2, Vero C1008, 72 h, concentration reducing viral replication by 50%, […].

As for `O=C1CSC(c2ccc([N+](=O)[O-])cc2)N1CCc1ccccc1F` (stereo not drawn) [Compound 4b, 2-(4-nitrophenyl)-3-(2-fluorophenylethyl)-1,3-thiazolidin-4-one], the melting point was in the range of 150 to 151 °C. At SARS-CoV-2 Mpro, the IC50 was greater than 30 µM and the remaining activity at 30 µM stood at 70%. Further, in data set [1] (setting [2]), the EC50 was greater than 100 µM. Moreover, the half-maximal cytotoxic concentration (CC50) at 24 h in “in vitro” is greater than 100 µM.
Take `O=C1CSC(c2ccc([N+](=O)[O-])cc2)N1CCc1ccccc1` (stereo not drawn) [Compound 4a, 2-(4-nitrophenyl)-3-(phenylethyl)-1,3-thiazolidin-4-one]: the melting point was 125 °C. Further, on SARS-CoV-2 Mpro, the IC50 is greater than 30 µM and the remaining activity at 30 µM came to 53%. Further, the EC50 in data set [1] (setting [2]) is greater than 100 µM. This compound registered a CC50 at 24 h in the data set “in vitro” greater than 100 µM.
Take `O=C1CSC(c2ccc([N+](=O)[O-])cc2)N1CCc1cccc(F)c1` (stereo not drawn) [Compound 4c, 2-(4-nitrophenyl)-3-(3-fluorophenylethyl)-1,3-thiazolidin-4-one]: the melting point is 165 to 167 °C. At SARS-CoV-2 Mpro, the IC50 is greater than 30 µM and the remaining activity at 30 µM amounted to 87%. In addition, in data set [1] (setting [2]), the EC50 was greater than 100 µM. This compound came in with a CC50 at 24 h in the data set “in vitro” greater than 100 µM.
For the compound `O=C1CSC(c2ccc([N+](=O)[O-])cc2)N1CCc1ccccc1Cl` (stereo not drawn) [Compound 4g], the EC50 in data set [1] (setting [2]) is greater than 100 µM. In addition, the cytotoxic concentration (CC50) at 24 h in “in vitro” was greater than 100 µM.
Consider `CC(C)C[C@H](NC(=O)OCc1ccccc1)C(=O)N[C@@H](CC1CCNC1=O)C(O)S(=O)(=O)O` (stereo partly drawn) [GC376, reference compound], for which the EC50 in data set [1] stood at 0.626 ± 0.06 µM. Moreover, in the data set on Vero-E6 GFP cells, the CC50 is greater than 100 µM.
With `COc1ccccc1CCN1C(=O)CSC1c1ccc([N+](=O)[O-])cc1` (stereo not drawn) [Compound 4e], at SARS-CoV-2 Mpro, the remaining activity at 30 µM amounted to 54%. Moreover, the EC50 in data set [1] (setting [2]) is greater than 100 µM. The same compound yielded a CC50 at 24 h in “in vitro” greater than 100 µM.
For `O=C1CSC(c2ccc([N+](=O)[O-])cc2)N1CCc1ccccc1Cl` (stereo not drawn) [Compound 4e], the melting point lay within 123 to 124.5 °C.
`O=C1CSC(c2ccc([N+](=O)[O-])cc2)N1CCc1ccc(F)cc1` (stereo not drawn) [Compound 4d, 2-(4-nitrophenyl)-3-(4-fluorophenylethyl)-1,3-thiazolidin-4-one] yielded a melting point of 149 to 151 °C. Further, at SARS-CoV-2 Mpro, the IC50 came to 27.5 ± 5.5 µM. Moreover, the EC50 in data set [1] (setting [2]) was greater than 100 µM. In “in vitro”, this compound showed a CC50 at 24 h greater than 100 µM.
Regarding `COc1ccc(CCN2C(=O)CSC2c2ccc([N+](=O)[O-])cc2)cc1` (stereo not drawn) [Compound 4f], on SARS-CoV-2 Mpro, the remaining activity at 30 µM was determined as 82%. Further, in data set [1] (setting [2]), the EC50 is greater than 100 µM. In addition, the CC50 at 24 h in “in vitro” is greater than 100 µM.
Turning to `O=C1CSC(c2ccc([N+](=O)[O-])cc2)N1CCc1ccc(Cl)cc1` (stereo not drawn) [Compound 4i], at SARS-CoV-2 Mpro, the remaining activity at 30 µM amounted to 54%. For the same compound, in data set [1] (setting [2]), the EC50 is greater than 100 µM. This compound returned a CC50 at 24 h in the data set “in vitro” greater than 100 µM.

For orientation: IC50 means the concentration at which inhibition is half-maximal. The term EC50 denotes the concentration giving half of the maximal effect. By CC50 is commonly meant the concentration that lowers cell viability or growth by half. A word on the melting point: it is the temperature of the solid-liquid transition.
